Assay results from ChEMBL document CHEMBL2176932, “De novo cyclic pseudopeptides containing aza-β3-amino acids exhibiting antimicrobial activities” (J Med Chem, 2012).
Converted amounts (≈) assume the structure as drawn.

Key:
Micrococcus luteus = test: Antibacterial activity against Micrococcus luteus ATCC 10240 after 48 hrs by microtiter broth dilution method; assay type: functional; details: ATCC 10240, 48 h
Priestia megaterium = test: Antibacterial activity against Bacillus megaterium ATCC 10778 after 48 hrs by microtiter broth dilution method; assay type: functional; details: ATCC 10778, 48 h
Listeria monocytogenes = test: Antibacterial activity against Listeria monocytogenes SOR 100 after 48 hrs by microtiter broth dilution method; assay type: functional; details: SOR 100, 48 h
[1] = Half life in bovine serum; assay type: ADME, cell-free, Bos taurus; details: cattle
[2] = Selectivity ratio of HC50 for sheep RBC to MIC for Escherichia coli ATCC 25922; assay type: functional
Enterococcus faecalis = test: Antibacterial activity against Enterococcus faecalis CIP 186 after 48 hrs by microtiter broth dilution method; assay type: functional; details: CIP 186, 48 h
[3] = Toxicity in sheep RBC assessed as minimal hemolytic concentration after 1 hr; assay type: cell-based, Ovis aries; details: erythrocyte
[4] = Selectivity ratio of MHC for sheep RBC to MIC for Listeria monocytogenes SOR 100; assay type: functional
Salmonella enterica = test: Antibacterial activity against Salmonella enterica ATCC 13076 after 48 hrs by microtiter broth dilution method; assay type: functional; details: ATCC 13076, 48 h
Klebsiella oxytoca = test: Antibacterial activity against Klebsiella oxytoca CIP 7932 after 48 hrs by microtiter broth dilution method; assay type: functional; details: CIP 7932, 48 h
Streptococcus equinus = test: Antibacterial activity against Streptococcus equinus ATCC 5623 after 48 hrs by microtiter broth dilution method; assay type: functional; details: ATCC 5623, 48 h
[5] = Selectivity ratio of HC50 for sheep RBC to MIC for Staphylococcus aureus ATCC 25923; assay type: functional
Pseudomonas aeruginosa = test: Antibacterial activity against Pseudomonas aeruginosa ATCC 27853 after 48 hrs by microtiter broth dilution method; assay type: functional; details: ATCC 27853, 48 h
Staphylococcus aureus = test: Antibacterial activity against Staphylococcus aureus ATCC 25923 after 48 hrs by microtiter broth dilution method; assay type: functional; details: ATCC 25923, 48 h
[6] = Selectivity ratio of MHC for sheep RBC to MIC for Staphylococcus aureus ATCC 25923; assay type: functional
Lactococcus garvieae = test: Antibacterial activity against Lactococcus garvieae ATCC 43921 after 48 hrs by microtiter broth dilution method; assay type: functional; details: ATCC 43921, 48 h
Escherichia coli = test: Antibacterial activity against Escherichia coli ATCC 25922 after 48 hrs by microtiter broth dilution method; assay type: functional; details: ATCC 25922, 48 h
Klebsiella aerogenes = test: Antibacterial activity against Enterobacter aerogenes ATCC 13048 after 48 hrs by microtiter broth dilution method; assay type: functional; details: ATCC 13048, 48 h
[7] = Toxicity in sheep RBC assessed as hemolytic activity at 100 uM after 1 hr; assay type: cell-based, Ovis aries, Erythrocyte; details: sheep red blood cells, read-out: Activity
[8] = Toxicity in sheep RBC assessed as hemolytic activity after 1 hr; assay type: cell-based, Ovis aries, Erythrocyte; details: sheep red blood cells
Aeromonas caviae = test: Antibacterial activity against Aeromonas caviae ATCC 15648 after 48 hrs by microtiter broth dilution method; assay type: functional; details: ATCC 15648, 48 h

Work on `N=C(N)NCCC[C@@H]1NC(=O)CN(CC2CCCCC2)NC(=O)[C@H](Cc2c[nH]c3ccccc23)NC(=O)CN(Cc2ccc(F)cc2)NC(=O)[C@H](Cc2c[nH]c3ccccc23)NC(=O)CN(CCCCN)NC1=O` yielded an MIC (Micrococcus luteus) of 3.12 µM (≈ 3.18 µg/mL), an MIC (Priestia megaterium) of 1.56 µM (≈ 1.59 µg/mL) and an MIC (Listeria monocytogenes) of 6.25 µM (≈ 6.38 µg/mL). For the same molecule, the half-life [1] was greater than 2 h, the Selectivity ratio [2] was 4 and the MIC (Enterococcus faecalis) was 50 µM (≈ 51 µg/mL). For the same molecule, the MHC [3] was 100 µM, the Selectivity ratio [4] was 16 and the MIC (Salmonella enterica) was 25 µM (≈ 25.5 µg/mL). The MIC (Klebsiella oxytoca) was 25 µM (≈ 25.5 µg/mL), the MIC (Streptococcus equinus) was 6.25 µM (≈ 6.38 µg/mL) and the Selectivity ratio [5] was 4. The MIC (Pseudomonas aeruginosa) was 50 µM (≈ 51 µg/mL), the MIC (Staphylococcus aureus) was 25 µM (≈ 25.5 µg/mL) and the Selectivity ratio [6] was 4. It also gave an MIC (Lactococcus garvieae) of 25 µM (≈ 25.5 µg/mL), an MIC (Escherichia coli) of 25 µM (≈ 25.5 µg/mL) and an MIC (Klebsiella aerogenes) of 12.5 µM (≈ 12.8 µg/mL). For the same molecule, the hemolysis at 1 h, 100 µM [7] was 2.5%, the HC50 at 1 h [8] was greater than 100 µM and the MIC (Aeromonas caviae) was greater than 100 µM.
